Reference: patent US9951081B1, “Chlorin e6 derivative and pharmaceutically acceptable salt thereof and process for preparing and use of the same” (priority 2016, dated 2018)
Like-named read-outs stand apart in the source and are kept apart here.

Columns and labels:
[1] = test system: mice melanoma cell (B16-F10); test: In vitro darktoxicity and PDT killing effect (CCK-8), B16-F10; assay type: cell-based; settings: for PDT anti-cancer activity (in words): light dose of 8 J/cm^2
Excerpt: (§1) Human non-small cell lung cancer cellA549 and mice melanoma cell B16-F10 provided by Cell bank of Shanghai in Chinese Academy of Sciences were selected as cell strains.
(§2) 660 nm semiconductor laser therapeutic equipments manufactured by Baifei biomedical company of Shanghai was selected as a laser light source, with the largest output power of 2 W.
(§3) 1) Cell strains of tumors: culture of human non-small cell lung cancer cell (A549) and mice melanoma cell (B16-F10): frozen cells were taken out of liquid nitrogen, placed in a water bath at […]. […] The medium was renewed once every two days.
(§4) 2) Preparation of reagents: compounds of the present application to be tested and positive control drug Talaporfin were dissolved in a suitable amount of 0.1 M NaOH, adjusted pH to 7.4 by 0.1 M HCl. Normal saline was added to prepare drug stock solution in a suitable concentration.
(§5) 3) Detecting darktoxicity and PDT killing effects to the two tumor cells of compounds to be tested and positive control drug: 100 μL of 5×10^3/mL cell suspension was added into each well of 96-well plate, placed in a incubator at 37° C., 5% CO2 for 24 h. after removing cell medium, fresh mediums containing different concentration of samples were added, opened with three complex holes, and incubated for 24 h at 37° C. and 5% CO2 (volume concentration). After adding fresh medium, no light irradiated (darktoxicity) or 660 nm wavelength laser was used to irradiate (light dose was 8 J/cm^2) (phototoxicity). Cells were incubated for another 24 h. Cell medium containing drugs were removed and fresh medium was added. 200 μL medium containing 10% (v/v) CCK-8 (Dojindo Laboratories, Japan) was added into each well, and incubated for 1.5 h. Microplate reader (Tecan, Switzerland) was used to measure absorbance of each well at a wavelength of 450 nm.

[2] = test system: human non-small cell lung cancer cell (A549); test: In vitro darktoxicity and PDT killing effect (CCK-8), A549; assay type: cell-based; settings: for PDT anti-cancer activity (in words): light dose of 8 J/cm^2
Excerpt: as §1, §2, §3, §4, §5

[3] = 660 nm laser, light dose 8 J/cm^2, read-out: Phototoxicity (IC50)
[4] = no light irradiated, 24 h drug incubation, read-out: Darktoxicity (IC50)

SMILES | Ratio of Darktoxicity and Phototoxicity [1] | IC50 [1, 3] | IC50 [1, 4] | Ratio of Darktoxicity and Phototoxicity [2] | IC50 [2, 3] | IC50 [2, 4] | PDT anti-cancer activity (in words) [1] | PDT anti-tumor activity, times that of Talaporfin ([1]; relative to Talaporfin) | ratio of darktoxicity-phototoxicity, times that of Talaporfin ([1]; relative to Talaporfin) | PDT anti-cancer activity (in words) [2] | PDT anti-tumor activity, times that of Talaporfin ([2]; relative to Talaporfin) | ratio of darktoxicity-phototoxicity, times that of Talaporfin ([2]; relative to Talaporfin) | IC50 ([1]; Mus musculus, light or radiation study, 660 nm laser, light dose 8 J/cm^2, read-out: Phototoxicity (IC50)) | IC50 ([1]; Mus musculus, light or radiation study, no light irradiated, 24 h drug incubation, read-out: Darktoxicity (IC50)) | IC50 ([2]; Homo sapiens, light or radiation study, 660 nm laser, light dose 8 J/cm^2, read-out: Phototoxicity (IC50)) | IC50 ([2]; Homo sapiens, light or radiation study, no light irradiated, 24 h drug incubation, read-out: Darktoxicity (IC50))
CCC1=C(C)c2cc3[nH]c(cc4nc(c(CC(=O)N[C@@H](CC(=O)O)C(=O)O)c5[nH]c(cc1n2)c(C)c5C(=O)O)C(CCC(=O)O)C4C)c(C)c3C(C)OC (stereo partly drawn) [I1, N-[3-(1-methoxy)ethyl-3-devinylchlorine6-15^2-acyl]-L-aspartic acid] | 102.34 | 2.06 µM | 211 µM | >227.27 | 1.32 µM | > 300 µM | – | – | – | – | – | – | – | – | – | –
CCCOC(C)c1c(C)c2cc3nc(c(CC(=O)N[C@@H](CC(=O)O)C(=O)O)c4[nH]c(cc5nc(cc1[nH]2)C(C)=C5CC)c(C)c4C(=O)O)[C@@H](CCC(=O)O)[C@@H]3C (stereo partly drawn) [I2, N-[3-(1-n-propoxyl)ethyl-3-devinylchlorine6-15^2-acyl]-L-aspartic acid] | 125.73 | 1.48 µM | 186 µM | >288.46 | 1.04 µM | > 300 µM | – | – | – | – | – | – | – | – | – | –
CCCCCCOC(C)c1c(C)c2cc3nc(c(CC(=O)N[C@@H](CC(=O)O)C(=O)O)c4[nH]c(cc5nc(cc1[nH]2)C(C)=C5CC)c(C)c4C(=O)O)[C@@H](CCC(=O)O)[C@@H]3C (stereo partly drawn) [I3, N-[3-(1-n-hexyloxy)ethyl-3-devinylchlorine6-15^2-acyl]-L-aspartic acid] | 215.65 | 0.89 µM | 192 µM | 438.34 | 0.65 µM | 285 µM | best | 12.07 times | 13.64 times | best | 13.63 times | 14.04 times | – | – | – | –
CCC1=C(C)c2cc3[nH]c(cc4nc(c(CC(=O)N[C@@H](CC(=O)OC(C)(C)C)C(=O)OC(C)(C)C)c5[nH]c(cc1n2)c(C)c5C(=O)O)[C@@H](CCC(=O)O)[C@@H]4C)c(C)c3C(C)OCCOC (stereo partly drawn) [I4, N-[3-[1-(2-methoxy)ethyoxyl]ethyl-3-devinylchlorine6-15^2-acyl]-L-aspartic acid di-tert-butyl ester] | 113.91 | 1.61 µM | 183 µM | 255.18 | 1.17 µM | 299 µM | – | – | – | – | – | – | – | – | – | –
CCC1=C(C)c2cc3[nH]c(cc4nc(c(CC(=O)N[C@@H](CC(=O)O)C(=O)O)c5[nH]c(cc1n2)c(C)c5C(=O)O)C(CCC(=O)O)C4C)c(C)c3C(C)OCCCCOC (stereo partly drawn) [I7, N-[3-[1-(4-methoxy)butoxy]ethyl-3-devinylchlorine6-15^2-acyl]-L-aspartic acid] | 159.38 | 1.04 µM | 166 µM | 317.88 | 0.86 µM | 273 µM | – | – | – | – | – | – | – | – | – | –
CCC1=C(C)c2cc3[nH]c(cc4nc(c(CC(=O)N[C@@H](CC(=O)O)C(=O)O)c5[nH]c(cc1n2)c(C)c5C(=O)O)[C@@H](CCC(=O)O)[C@@H]4C)c(C)c3C(C)OCCOCCOC (stereo partly drawn) [I8, N-[3-[1-(2-(2-methoxy)ethyoxyl)ethyoxyl]ethyl-3-devinylchlorine6-15^2-acyl]-L-aspartic acid] | 122.07 | 1.43 µM | 175 µM | 283.98 | 1.01 µM | 287 µM | – | – | – | – | – | – | – | – | – | –
CCCOC(C)c1c(C)c2cc3nc(c(CC(=O)N[C@@H](CCC(=O)O)C(=O)O)c4[nH]c(cc5nc(cc1[nH]2)C(C)=C5CC)c(C)c4C(=O)O)[C@@H](CCC(=O)O)[C@@H]3C (stereo partly drawn) [I11, N-[3-(1-n-propoxyl)ethyl-3-devinylchlorine6-15^2-acyl]-L-glutamic acid] | – | – | 173 µM | – | 1.12 µM | 278 µM | – | – | – | – | – | – | – | – | – | –
CCCCCCOC(C)c1c(C)c2cc3nc(c(CC(=O)N[C@@H](CCC(=O)O)C(=O)O)c4[nH]c(cc5nc(cc1[nH]2)C(C)=C5CC)c(C)c4C(=O)O)C(CCC(=O)O)C3C (stereo partly drawn) [I12, N-[3-(1-n-hexyloxy)ethyl-3-devinylchlorine6-15^2-acyl]-L-glutamic acid] | – | – | – | – | – | – | best | – | – | best | – | – | – | – | – | –
CCC1=C(C)c2cc3[nH]c(cc4nc(c(CC(=O)N[C@@H](CCC(=O)O)C(=O)O)c5[nH]c(cc1n2)c(C)c5C(=O)O)[C@@H](CCC(=O)O)[C@@H]4C)c(C)c3C(C)OCCOC (stereo partly drawn) [I13, N-[3-[1-(2-methoxy)ethyoxyl]ethyl-3-devinylchlorine6-15^2-acyl]-L-glutamic acid] | 92.93 | 1.72 µM | 160 µM | 213.90 | 1.25 µM | 267 µM | – | – | – | – | – | – | – | – | – | –
CCC1=C(C)c2cc3[nH]c(cc4nc(c(CC(=O)N[C@@H](CCC(=O)O)C(=O)O)c5[nH]c(cc1n2)c(C)c5C(=O)O)[C@@H](CCC(=O)O)[C@@H]4C)c(C)c3C(C)OCCOCCOC (stereo partly drawn) [I17, N-[3-[1-(2-(2-methoxy)ethyoxyl)ethyoxyl]ethyl-3-devinylchlorine6-15^2-acyl]-L-glutamic acid] | 111.04 | 1.52 µM | 169 µM | 240.63 | 1.1 µM | 265 µM | – | – | – | – | – | – | – | – | – | –
CCC1=C(C)c2cc3[nH]c(cc4nc(c(CC(=O)N[C@@H](CCCCN)C(=O)O)c5[nH]c(cc1n2)c(C)c5C(=O)O)C(CCC(=O)O)C4C)c(C)c3C(C)OC (stereo partly drawn) [I19, N^α-[3-(1-methoxy)ethyl-3-devinylchlorine6-15^2-acyl]-L-lysine] | 84.41 | 2.28 µM | 192 µM | >156.25 | 1.92 µM | > 300 µM | – | – | – | – | – | – | – | – | – | –
CCCOC(C)c1c(C)c2cc3nc(c(CC(=O)N[C@@H](CCCCN)C(=O)O)c4[nH]c(cc5nc(cc1[nH]2)C(C)=C5CC)c(C)c4C(=O)O)[C@@H](CCC(=O)O)[C@@H]3C (stereo partly drawn) [I20, N-[3-(1-n-propoxyl)ethyl-3-devinylchlorine6-15^2-acyl]-L-lysine] | 92.87 | 1.75 µM | 163 µM | >225.56 | 1.33 µM | > 300 µM | – | – | – | – | – | – | – | – | – | –
CCCCCCOC(C)c1c(C)c2cc3nc(c(CC(=O)N[C@@H](CCCCN)C(=O)O)c4[nH]c(cc5nc(cc1[nH]2)C(C)=C5CC)c(C)c4C(=O)O)C(CCC(=O)O)C3C (stereo partly drawn) [I21, N-[3-(1-n-hexyloxy)ethyl-3-devinylchlorine6-15^2-acyl]-L-lysine] | 171.31 | 1.05 µM | 180 µM | 370.30 | 0.79 µM | 293 µM | best | – | – | best | – | – | – | – | – | –
CCC1=C(C)c2cc3[nH]c(cc4nc(c(CC(=O)N[C@@H](CCCCN)C(=O)O)c5[nH]c(cc1n2)c(C)c5C(=O)O)[C@@H](CCC(=O)O)[C@@H]4C)c(C)c3C(C)OCCOC (stereo partly drawn) [I22, N-[3-[1-(2-methoxy)ethyoxyl]ethyl-3-devinylchlorine6-15^2-acyl]-L-lysine] | 89.24 | 1.91 µM | 170 µM | 175.76 | 1.47 µM | 258 µM | – | – | – | – | – | – | – | – | – | –
CCC1=C(C)c2cc3[nH]c(cc4nc(c(CC(=O)N[C@@H](CCCCN)C(=O)O)c5[nH]c(cc1n2)c(C)c5C(=O)O)C(CCC(=O)O)C4C)c(C)c3C(C)OCCCCOC (stereo partly drawn) [I25, N-[3-[1-(4-methoxy)butoxy]ethyl-3-devinylchlorine6-15^2-acyl]-L-lysine] | 140.15 | 1.16 µM | 163 µM | 222.06 | 1.08 µM | 240 µM | – | – | – | – | – | – | – | – | – | –
CCC1=C(C)c2cc3[nH]c(cc4nc(c(CC(=O)N[C@@H](CCCCN)C(=O)O)c5[nH]c(cc1n2)c(C)c5C(=O)O)[C@@H](CCC(=O)O)[C@@H]4C)c(C)c3C(C)OCCOCCOC (stereo partly drawn) [I26, N-[3-[1-(2-(2-methoxy)ethyoxyl)ethyoxyl]ethyl-3-devinylchlorine6-15^2-acyl]-L-lysine] | 105.20 | 1.67 µM | 176 µM | 201.61 | 1.23 µM | 248 µM | – | – | – | – | – | – | – | – | – | –
C=Cc1c(C)c2cc3nc(c(CC(=O)N[C@@H](CC(=O)O)C(=O)O)c4[nH]c(cc5nc(cc1[nH]2)C(C)=C5CC)c(C)c4C(=O)O)[C@@H](CCC(=O)O)[C@@H]3C [Talaporfin, reference compound] | 15.81 | – | – | 31.21 | – | – | – | – | – | – | – | – | 10.7 µM | 170 µM | 8.86 µM | 277 µM
